Values after ≈ are worked out from the molar mass of the structure shown.
What was measured:
[1] = tested on: DNA viruses; conditions: literature refs. 14-17; cited from earlier work
[2] = tested on: Human cytomegalovirus (HCMV) strain AD169; assay: HCMV plaque reduction (cytopathic effect) assay, strain AD169 in MRC-5 cells; type: cell-based; conditions: Human betaherpesvirus 5, AD169/MRC5, read-out: IC50 (median inhibitory concentration)
Description: (§1) Vero and MRC-5 cells were obtained from ATCC. Human foreskin fibroblast (HFF) and Vero cells were routinely grown in minimal essential medium (MEM) with Earle salts [MEM(E)]supplemented with 10% fetal bovine serum (FBS). MRC-5 cells were grown in Basal Medium Eagle (BME) with 10% FBS and 0.035% NaHCO3. Cells were passaged according to conventional procedures.^33 Human cytomegalovirus (HCMV) strains AD169 and Towne were obtained from the ATCC. Herpes simplex virus type i and type 2 (HSV1 and HSV2) are commercially available.
Two different plaque reduction assays were employed to determine the antiviral efficacy of the test compounds in culture. The first assay used MRC-5 cells and the AD169 strain of HCMV. The second assay used HFF cells and the Towne strain of HCMV. In experiments using MRC-5 cells the growth medium was removed from monolayer cultures in 24-well tissue culture plates. One mL of virus (AD169), diluted in test medium (Dulbecco's modified Eagle medium (DMEM), 2% FBS, 0.1% NaHCO3 and 50 ug gentamicin/mL) was used. The 24-well plates were centrifuged at 2200 rpm for 30 minutes at room temperature to allow the virus to adsorb. Medium was then aspirated from each well of the plates. The individual dilutions of each compound (prepared in test medium) were placed in each test well (0.8 mL/well, 4 wells/dilution). All plates were incubated at 37° C. in a moist atmosphere of 5% CO2. When virus plaques had formed in control cells (HCMV infected, untreated) the medium was aspirated from all wells, and the cells were stained by adding 0.3 mL of 0.2% crystal violet in 10% buffered formalin to each well. After 15 minutes, the stain was removed, cells were rinsed in tap water until the water was clear, and the plates were inverted and dried at room temperature. Plaques were counted by use of a dissecting microscope.
(§2) Ganciclovir was used as an anti-HCMV standard in all HCMV assays.
(§3) I. A series of guanine analogs containing an alkyl side chain in place of sugar moiety were evaluated for their ability to inhibit HCMV production in acute infection assays in culture and for cytotoxicity in HFF and MRC-5 cells.
(§4) III. Table 1 lists the median inhibitory concentration (IC50) for all compounds tested against HCMV strains AD169 or Towne. In addition this table lists the median toxic concentrations of these compounds (TC50) as determined by visual observation of uninfected cells treated with various concentrations of drug.
Plaque reduction assays were employed to determine the antiviral efficacy of the test compounds in culture. MRC-5 cells and the AD169 strain of FICMV were used. Growth medium was removed from monolayer cultures in 24-well tissue culture plates. One ml of virus, diluted in test medium (Dulbecco's modified Eagle medium (DMEM), 2% FBS, 0.1% NaHCO3 and 50 ug gentamicin/ml). After infection and subsequent removal of the media, individual dilutions of each compound (prepared in test medium) were placed in each test well (0.8 ml/well, 4 wells/dilution) and plates incubated at 37° C. in a moist atmosphere of 5% CO2. When virus plaques have formed in control cells (HCMV infected, untreated) the medium was aspirated from all wells, and the cells stained by adding 0.3 ml of 0.2% crystal violate in 10% buffered formalin to each well. Plaques were counted by use of a dissecting microscope. Ganciclovir was used as an anti-HCMV standard in all HCMV assays.

[3] = tested on: Human cytomegalovirus (HCMV) strain Towne; assay: HCMV plaque reduction (cytopathic effect) assay, strain Towne in HFF cells; type: cell-based; conditions: Human betaherpesvirus 5, HFF, read-out: IC50 (median inhibitory concentration)
Description: as §1
A similar set of experiments designed to monitor HCMV plaque reduction were performed with monolayer cultures of HFF and the Towne strain of HCMV using procedures similar to those reported by Turk et al.^34 Diploid HFF cells were plated 24 hr before use at approximately 1×10^5 cells/plate. These monolayer cultures were infected with 100 plaque forming units (PFU) of virus. The compounds to be assayed were dissolved in culture medium. Viral adsorption was allowed to proceed for 1 hr at which time virus containing medium was removed and replaced with medium containing the various dilutions of the test compounds. Plaques were counted using crystal violet as described above.
as §2, §3, §4

[4] = Visual cytotoxicity in stationary uninfected MRC-5 cells; type: cell-based; conditions: human, AD169/MRC5 system, visual observation of stationary uninfected MRC5 cells, read-out: TC50 (median toxic concentration)
Description: (§5) Stationary uninfected HFF and MRC-5 cells were evaluated for visual cytotoxicity on the scoring basis of 0 (no visual cytotoxicity at 20 fold magnification) to 4 (cell sheet nearly destroyed). Cytotoxicity as measured by inhibition of cell growth was performed in Vero cells using a CellTiter 96™ Aqueous Non-Radioactivity Cell Proliferation Assay (Promega). Cytotoxicity assays were performed using a 4 day incubation of test compound with Vero cells plated at 500 cells/well. Each assay was performed in quadruplicate. The resultant data are averaged, graphed and then used to calculate the TC50 (median toxic concentration) for the compound tested.
as §3, §4

[5] = Visual cytotoxicity in stationary uninfected HFF cells; type: cell-based; conditions: human; Towne/HFF system; visual observation of stationary uninfected HFF cells; read-out: TC50 (median toxic concentration)
Description: as §1, §5, §3, §4

[6] = tested on: Herpes simplex virus type 1 (HSV1); assay: Inhibition of HSV1 in Vero cells (CPE assay); type: cell-based; conditions: Human alphaherpesvirus 1, CPE scored 40 to 48 h post-infection
Description: as §1
(§6) Vero cells were plated at 4×10^4 cells/well in a 96-well microtitre dish in 0.1 mL of MEM(E) with 10% FBS 24 h before infection with virus. The cells were incubated at 37° C. in a 5% CO2 atmosphere. The medium was then removed and 50 μL of media containing 30 to 50 PFU of virus was allowed to adsorb to the cells for 10 minutes at 37° C. The virus containing medium was then removed and the cells were rinsed 3 times with fresh media. A final 100 μL aliquot of fresh medium, containing the various dilutions of test compounds, was then added to each well and the plates were then incubated at 37° C. Plaques were observed 24 hr post-infection and the degree of cytopathic effect scored 40 to 48 h post-infection. Acyclovir was used as a standard in all ttSV assays.
(§7) I. The same compounds used in Example 31 were also assayed for their ability to inhibit herpes simplex viruses type 1 and type 2 in acute infection assays in culture.
(§8) III. The toxic effect of these compounds on actively dividing Vero cells is reported. For all values listed as >x, x is the highest concentration tested for the respective compound.
(§9) Vero cells were plated in a 96-well microtitre dish in 0.1 ml of MEM(E) with 10% FBS 24 hours before infection with virus. The medium will then be removed and 50 ul of media containing 30 to 50 PFU of virus were allowed to adsorb to the cells for 10 minutes at 37° C. The virus-containing medium will then be removed and the cells rinsed 3 times with fresh media. A final 100 ul aliquot of fresh medium, containing the various dilutions of test compounds, were added to each well and the plates incubated at 37° C. Plaques were observed 24 hours post-infection and the degree of cytopathic effect scored 40 to 48 hours-post infection. Acyclovir was used as a standard in all HSV assays.

[7] = tested on: Herpes simplex virus type 2 (HSV2); assay: Inhibition of HSV2 in Vero cells (CPE assay); type: cell-based; conditions: Human alphaherpesvirus 2, CPE scored 40 to 48 h post-infection
Description: as §1, §6, §7, §8, §9

[8] = Cytotoxicity (inhibition of cell growth) in actively dividing Vero cells, CellTiter 96 assay; type: cell-based; conditions: african green monkey, 4 day incubation, read-out: Cytotoxicity (TC50)
Description: as §1, §5
III. […] For all values listed as >x, x is the highest concentration tested for the respective compound.

[9] = literature ref. 3-7; cited from earlier work
[10] = tested on: viruses; conditions: literature ref. 3; cited from earlier work
[11] = tested on: viruses; conditions: literature ref. 3; cited from earlier work; remark: listed apart in the source

Row | Structure (SMILES) | activity against several DNA viruses [1] | IC50 [2] | IC50 [3] | CC50 [4] | CC50 [5] | IC50 [6] | IC50 [7] | CC50 at 96 h [8] | immunomodulatory activity [9] | antiviral activity in the host animal [10] | antiviral activity in vitro [11]
1 | O=c1[nH]c(=O)n([C@@H]2O[C@H](CO)[C@@H](O)[C@@H]2F)cc1I [FIAU, 1-(2-deoxy-2-fiuoro-β-D-arabinofuranosyl)-5-iodouracil] | potent agents against several DNA viruses | – | – | – | – | – | – | – | – | – | –
2 | CCC=CCn1c(=O)sc2c(=O)[nH]c(N)nc21 [Compound R1132-74, 5-Amino-3-(pent-2-ene-1-yl)thiazolo[4,5-d]-pyrimidine-2,7(3H,6H)-dione] | – | < 1 mg/L | 0.14 mg/L (≈ 0.555 µM) | > 100 mg/L | > 100 mg/L | 0.53 mg/L (≈ 2.1 µM) | < 0.27 mg/L | > 20 mg/L | – | – | –
3 | CC(C)=CCn1c(=O)sc2c(=O)[nH]c(N)nc21 [Compound R1132-72, 5-Amino-3-(3-methylbut-2-ene-1-yl)thiazo lo[4,5-d]-pyrimidine-2,7(3H,6H)-dione] | – | 4 mg/L (≈ 15.9 µM) | 1.7 mg/L (≈ 6.74 µM) | > 100 mg/L | 100 mg/L (≈ 396 µM) | 5.6 mg/L (≈ 22.2 µM) | 5.6 mg/L (≈ 22.2 µM) | 20 mg/L (≈ 79.3 µM) | – | – | –
4 | CCC(CC)n1c(=O)sc2c(=O)[nH]c(N)nc21 [Compound R1132-76, 5-Amino-3-(pentan-3-yl)thiazolo[4,5-d]-pyrimidine-2,7(3H, 6 H)-dione] | – | > 100 mg/L | – | 32 mg/L (≈ 126 µM) | – | > 21.7 mg/L | 21.7 mg/L (≈ 85.3 µM) | 56 mg/L (≈ 220 µM) | – | – | –
5 | Nc1nc2c(ncn2COCCO)c(=O)[nH]1 [acyclovir, 9-(2-hydroxyethoxymethyl)guanine, reference compound] | – | – | – | – | – | 0.2 mg/L (≈ 0.888 µM) | 0.2 mg/L (≈ 0.888 µM) | > 100 mg/L | – | – | –
6 | Nc1nc2c(ncn2COC(CO)CO)c(=O)[nH]1 [Ganciclovir, 9-(1-hydroxymethyl-2-hydroxyethoxymethyl)guanine, reference compound] | – | 2.1 mg/L (≈ 8.23 µM) | 2.7 mg/L (≈ 10.6 µM) | > 900 mg/L | > 100 mg/L | – | – | – | – | – | –
7 | Cc1cn([C@@H]2O[C@H](CO)[C@@H](O)[C@@H]2F)c(=O)[nH]c1=O [FMAU, 1-(2-deoxy-2-fiuoro-β-D-arabinofuranosyl)thymine] | potent agents against several DNA viruses | – | – | – | – | – | – | – | – | – | –
8 | CCCCCCn1c(=O)sc2c(=O)[nH]c(N)nc21 [Compound R1132-30] | – | 0.45 mg/L (≈ 1.68 µM) | – | 1.2 mg/L (≈ 4.47 µM) | – | > 1.2 mg/L | > 1.2 mg/L | > 1 mg/L | – | – | –
9 | CCCCCn1c(=O)sc2c(=O)[nH]c(N)nc21 [Compound R1132-36] | – | 0.2 mg/L (≈ 0.786 µM) | 17 mg/L (≈ 66.8 µM) | 4 mg/L (≈ 15.7 µM) | 100 mg/L (≈ 393 µM) | > 5.1 mg/L | > 5.1 mg/L | > 5 mg/L | – | – | –
10 | Nc1nc2c(sc(=O)n2[C@@H]2O[C@H](CO)[C@@H](O)[C@H]2O)c(=O)[nH]1 [7-thia-8-oxoguanosine] | – | – | – | – | – | – | – | – | demonstrated immunomodulatory activity | broad spectrum of antiviral activity | virtually inactive
11 | C=CCCCn1c(=O)sc2c(=O)[nH]c(N)nc21 [Compound R1132-75, 5-Amino-3-(pent-4-ene-1-yl)thiazolo[4,5-d]-pyrimidine-2,7(3H, 6H)-dione] | – | 9.4 mg/L (≈ 37.3 µM) | 12 mg/L (≈ 47.6 µM) | 68 mg/L (≈ 270 µM) | > 100 mg/L | 16.2 mg/L (≈ 64.4 µM) | 8.1 mg/L (≈ 32.1 µM) | 45 mg/L (≈ 178 µM) | – | – | –
12 | CCCCCC(CCCCC)n1c(=O)sc2c(=O)[nH]c(N)nc21 [Compound R1132-77, 5-Amino-3-(undecan-6-yl)thiazolo[4,5-d]-pyrimidine-2,7(3H,6H)-dione] | – | 12 mg/L (≈ 35.5 µM) | – | 52 mg/L (≈ 154 µM) | – | – | – | – | – | – | –
13 | CCCCC(CCCC)n1c(=O)sc2c(=O)[nH]c(N)nc21 [Compound R1132-73, 5-Amino-3-(nonan-5-yl)thiazolo[4,5-d]-pyrimidine-2,7(3H, 6H)-dione] | – | 9.4 mg/L (≈ 30.3 µM) | 4.7 mg/L (≈ 15.1 µM) | 178 mg/L (≈ 573 µM) | 11.1 mg/L (≈ 35.8 µM) | > 2.2 mg/L | > 2.2 mg/L | > 2.5 mg/L | – | – | –
